According to paper PMC10222456, “Application of Physiologically Based Pharmacokinetic Modeling to Predict Drug–Drug Interactions between Elexacaftor/Tezacaftor/Ivacaftor and Tacrolimus in Lung Transplant Recipients” (Pharmaceutics, 2023):

What was measured:
[1] = system: CYP3A; assay: PBPK simulation of clinical DDI studies (model verification); design: species or system human; conditions: victim drug +/− ivacaftor
Description: For verification simulations, the dose and schedule of drugs were matched to the design of the corresponding clinical DDI study performed in healthy volunteers.
The input parameters of these CYP3A substrates are available in the compound library of Simcyp version 21: SV-Ethinylestradiol and Sim-Midazolam. […] For the ivacaftor–ethinylestradiol situation, ivacaftor 150 mg was administered orally twice daily for 28 days, while ethinylestradiol oral 0.035 mg was administered once daily for 21 days.
The PBPK models for posaconazole and voriconazole as CYP3A inhibitors were built according to the publications by Hong and Li et al., respectively. For the posaconazole–tacrolimus DDI study, posaconazole was administered orally at a dose of 400 mg twice daily for 7 days, and a single oral dose of tacrolimus 0.05 mg/kg was administered on day 7. For the voriconazole–tacrolimus DDI, voriconazole was administered orally at a dose of 400 mg twice daily for the first day, followed by 200 mg twice daily for the next 6 days, and a single oral dose of tacrolimus 0.1 mg/kg was administered on day 7.
To quantify the DDIs, the geometric mean ratios of AUC or Cmax in the presence or absence of CYP3A modulators were determined. The assessment of the DDI prediction success was based on whether predictions fell within a twofold range of the observed data.

[2] = cited from earlier work
[3] = system: CYP3A; conditions: cited from earlier work
[4] = ivacaftor model input; cited from earlier work
[5] = system: CYP3A4; conditions: set to capture observed DDIs with ketoconazole or rifampin; cited from earlier work
[6] = ivacaftor model input; cited from earlier work; remark: listed apart in the source
[7] = ivacaftor 150 mg q12h oral, plasma, adult CF population; cited from earlier work
[8] = system: CYP3A; design: method as in earlier work; conditions: cited from earlier work
[9] = victim drug +/− ivacaftor 150 mg oral twice daily, healthy volunteers

## Cc1ncc2n1-c1ccc(Cl)cc1C(c1ccccc1F)=NC2 [midazolam]
[1]
  AUC Ratio, Ratio (Simulated/Observed): 1.09
  Cmax Ratio, Ratio (Simulated/Observed): 1.09
[2]
  oral bioavailability: 31–72%
[3]; co-administration with posaconazole 400 mg twice daily
  AUC ratio: 4.97
[3]; [9]
  AUC Ratio, Observed GMR (90% CI): 1.54 (1.39, 1.69)
  Cmax Ratio, Observed GMR (90% CI): 1.38 (1.26, 1.52)

## CC(C)(C)c1cc(C(C)(C)C)c(NC(=O)c2c[nH]c3ccccc3c2=O)cc1O [ivacaftor]
[2]; human, in vivo
  Tmax: 2 to 6 h
  half-life: 15 h
[4]
  logP: 5.68
[5]
  fraction metabolized by CYP3A4 (fmCYP3A4): 98%
[6]
  fraction of unbound drug in plasma (fu): 0.001
[7]
  Observed AUC (0–12 h) (mean): 12,100 ng∙h/mL
  Observed Cmax (mean): 1270 ng/mL

## Cc1nn(C)cc1S(=O)(=O)NC(=O)c1ccc(-n2ccc(OCC(C)(C)C(F)(F)F)n2)nc1N1C[C@@H](C)CC1(C)C [elexacaftor]
[8]
  effect on the activity of CYP3A: no significant effect
